Earlier results as cited in US8420367B2, “Polynucleotides encoding mutant hydrolase proteins with enhanced kinetics and functional expression” (Promega Corporation, priority 2006, dated 2013).

Target: tetracysteine domain in a recombinant protein

SMILES: O=C1OC2(c3ccccc31)c1ccc(O)c([As]3SCCS3)c1Oc1c2ccc(O)c1[As]1SCCS1 [FLASH, 4′,5′-bis(1,3,2-dithioarsolan-2-yl)fluorescein]
- dissociation constant: nanomolar or lower
